Measured values taken from ChEMBL document CHEMBL1201862, “PubChem BioAssay data set” (2004).
Calls of active or inactive are those of the source.

Assays:
[1] = molecular target: T1, Polyadenylate-binding protein 1 (Homo sapiens, UniProt P11940); assay: MLLE binding blockers, Cy5 peptide tracer – biochemical, fluorescence polarization, Cy5-PAM2 peptide, secondary, miRNA deadenylation inhibitor project, dose response (AID 602260); assay type: functional; conditions: read-out: IC50_Mean
[2] = molecular target: T1, Polyadenylate-binding protein 1; assay: MLLE domain peptide-binding blockers, IC50 – biochemical, fluorescence polarization, FITC-PAM2 peptide, dose response (AID 602259); assay type: functional; conditions: read-out: IC50_Mean
[3] = molecular target: Large T antigen (Simian virus 40, UniProt P03070); assay type: functional, Betapolyomavirus macacae;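 note: Confirmatory-stage PubChem screen for compounds that inhibit SV40 T antigen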
Chain of Large T antigen (P03070 whole entry): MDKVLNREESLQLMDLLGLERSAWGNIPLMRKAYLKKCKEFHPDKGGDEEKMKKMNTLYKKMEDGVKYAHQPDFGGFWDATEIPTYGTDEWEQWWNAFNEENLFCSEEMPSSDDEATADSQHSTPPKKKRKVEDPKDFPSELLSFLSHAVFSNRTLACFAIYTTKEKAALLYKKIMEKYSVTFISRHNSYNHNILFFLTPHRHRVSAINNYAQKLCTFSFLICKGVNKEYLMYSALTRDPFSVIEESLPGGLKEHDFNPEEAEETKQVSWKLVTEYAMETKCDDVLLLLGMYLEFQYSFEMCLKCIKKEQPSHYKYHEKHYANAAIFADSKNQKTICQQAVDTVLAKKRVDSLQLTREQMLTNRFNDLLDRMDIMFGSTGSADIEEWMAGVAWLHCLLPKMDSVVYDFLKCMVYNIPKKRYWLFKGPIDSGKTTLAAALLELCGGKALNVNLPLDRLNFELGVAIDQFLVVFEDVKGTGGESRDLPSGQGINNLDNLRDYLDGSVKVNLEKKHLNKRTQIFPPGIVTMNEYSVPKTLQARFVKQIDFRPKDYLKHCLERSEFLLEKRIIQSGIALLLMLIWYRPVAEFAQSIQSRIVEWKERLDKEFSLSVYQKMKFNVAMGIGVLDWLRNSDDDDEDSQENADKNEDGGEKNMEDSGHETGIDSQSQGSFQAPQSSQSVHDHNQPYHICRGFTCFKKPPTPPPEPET

[4] = Luminescence Cell-Based Dose Confirmation HTS to Identify Inhibitors of Platelet Dense Granule Release. [Related pubchem assays: 1663 (Primary HTS), 1678 (Summary of Project)]; assay type: functional
[5] = molecular target: Luciferin 4-monooxygenase (Photinus pyralis, UniProt P08659); assay: inhibition of purified Photinus pyralis luciferase – biochemical, luminescence, dose response (AID 1891)
Chain of Luciferin 4-monooxygenase (P08659 whole entry): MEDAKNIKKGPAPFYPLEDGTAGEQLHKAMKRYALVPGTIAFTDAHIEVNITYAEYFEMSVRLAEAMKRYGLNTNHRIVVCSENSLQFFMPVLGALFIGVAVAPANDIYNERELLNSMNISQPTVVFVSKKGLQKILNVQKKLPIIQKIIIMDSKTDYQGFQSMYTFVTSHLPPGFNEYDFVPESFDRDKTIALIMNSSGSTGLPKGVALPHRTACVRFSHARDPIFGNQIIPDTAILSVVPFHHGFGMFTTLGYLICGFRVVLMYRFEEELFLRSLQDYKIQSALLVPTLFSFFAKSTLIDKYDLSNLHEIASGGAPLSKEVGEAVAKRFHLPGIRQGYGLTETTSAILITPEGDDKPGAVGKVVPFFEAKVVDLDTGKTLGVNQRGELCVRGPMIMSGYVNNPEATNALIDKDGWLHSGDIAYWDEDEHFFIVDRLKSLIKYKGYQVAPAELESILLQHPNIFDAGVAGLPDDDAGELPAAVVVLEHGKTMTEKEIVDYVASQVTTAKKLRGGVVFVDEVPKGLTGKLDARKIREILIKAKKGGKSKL

[6] = molecular target: Induced myeloid leukemia cell differentiation protein Mcl-1 (Homo sapiens, UniProt Q07820); assay type: functional
Chain of Induced myeloid leukemia cell differentiation protein Mcl-1 (Q07820 whole entry): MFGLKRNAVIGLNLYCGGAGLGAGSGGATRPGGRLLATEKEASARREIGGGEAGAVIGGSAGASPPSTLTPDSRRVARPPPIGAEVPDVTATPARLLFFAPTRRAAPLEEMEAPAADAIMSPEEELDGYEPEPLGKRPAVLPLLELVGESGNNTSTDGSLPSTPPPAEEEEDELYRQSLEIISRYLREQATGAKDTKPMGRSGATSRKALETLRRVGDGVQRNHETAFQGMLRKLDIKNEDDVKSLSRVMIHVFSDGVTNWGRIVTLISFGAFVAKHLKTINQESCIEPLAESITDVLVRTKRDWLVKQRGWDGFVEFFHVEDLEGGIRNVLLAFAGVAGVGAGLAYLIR

[7] = NIH3T3 cell viability loss – ATP luminescence, mouse fibroblasts, counter-screen, dose response (AID 2010); assay type: functional, cell-based;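 note: cells exposed to compound for about 90 hours before reading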
[8] = cells; assay type: functional
[9] = Trypanosoma cruzi growth suppression in host cells – NIH3T3 host cells, beta-gal luminescence, confirmation (AID 2044); assay type: functional, cell-based;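 note: intracellular parasites grown in NIH/3T3 mouse fibroblasts as host cells; luminescent beta-galactosidase reporter signal from transgenic T. cruzi replicating inside host cells; inhibitors lower the luminescence signal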
[10] = molecular target: T2, Protein skinhead-1 (Caenorhabditis elegans, UniProt P34707); assay type: functional
T2 sequence (P34707 whole entry): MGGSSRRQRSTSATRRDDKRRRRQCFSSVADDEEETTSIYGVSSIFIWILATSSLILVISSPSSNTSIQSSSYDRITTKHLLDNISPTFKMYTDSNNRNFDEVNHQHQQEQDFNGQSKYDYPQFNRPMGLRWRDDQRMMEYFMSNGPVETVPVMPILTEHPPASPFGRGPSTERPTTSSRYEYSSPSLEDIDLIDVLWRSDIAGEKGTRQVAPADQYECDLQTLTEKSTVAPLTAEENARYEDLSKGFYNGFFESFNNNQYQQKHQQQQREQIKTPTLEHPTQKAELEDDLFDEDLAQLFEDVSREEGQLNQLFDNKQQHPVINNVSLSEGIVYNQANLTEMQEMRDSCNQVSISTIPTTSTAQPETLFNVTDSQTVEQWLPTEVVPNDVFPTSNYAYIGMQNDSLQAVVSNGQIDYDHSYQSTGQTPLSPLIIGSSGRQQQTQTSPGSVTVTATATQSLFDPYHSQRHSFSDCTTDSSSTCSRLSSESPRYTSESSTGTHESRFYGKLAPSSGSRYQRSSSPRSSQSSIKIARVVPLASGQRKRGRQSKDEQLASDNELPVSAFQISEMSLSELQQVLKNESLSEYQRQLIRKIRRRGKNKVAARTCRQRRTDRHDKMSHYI

[11] = NIH-3T3 fibroblast cytotoxicity, dose response, cytotoxicity control, cell-based, fluorescence, Alamar Blue, secondary assay (AID 2327); assay type: functional;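 note: NIH-3T3 mouse fibroblasts cultured with fluconazole at 8 µg/mL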
[12] = fluconazole-exposed Candida albicans growth modulators – fluorescence, retest, confirmation (AID 2467); assay type: functional, cell-based
[13] = viability of HCT116 lacking mutant beta-catenin – cell-based, human colon tumor, dose response (AID 1045); assay type: functional;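 note: HCT116 colon tumor cells with beta catenin knocked out; cells exposed to compound for 60 hours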
[14] = viability of PTEN-deleted HCT116 cells – cell-based, HCT116 PTEN knockout, dose response (AID 1047); assay type: functional;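 note: HCT116 colon tumor cells with PTEN knocked out; cells exposed to compound for 60 hours before readout; potency for loss of cell viability measured by luminescence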
[15] = molecular target: Cytochrome P450 2C9 (Homo sapiens, UniProt P11712)
Chain of Cytochrome P450 2C9 (P11712 whole entry): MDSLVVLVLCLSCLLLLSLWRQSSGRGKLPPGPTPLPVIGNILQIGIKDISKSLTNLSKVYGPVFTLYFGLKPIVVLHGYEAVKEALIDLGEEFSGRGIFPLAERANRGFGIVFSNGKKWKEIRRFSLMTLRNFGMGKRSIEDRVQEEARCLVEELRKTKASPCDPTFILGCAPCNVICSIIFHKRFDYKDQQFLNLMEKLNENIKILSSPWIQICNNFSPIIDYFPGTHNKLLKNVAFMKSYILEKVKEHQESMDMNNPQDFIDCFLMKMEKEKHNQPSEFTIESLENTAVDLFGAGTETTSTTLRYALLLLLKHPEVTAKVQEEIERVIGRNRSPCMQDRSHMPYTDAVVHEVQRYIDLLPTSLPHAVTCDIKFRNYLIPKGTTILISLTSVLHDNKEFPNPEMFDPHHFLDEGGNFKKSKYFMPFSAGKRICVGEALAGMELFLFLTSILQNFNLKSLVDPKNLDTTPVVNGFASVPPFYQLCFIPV

[16] = Luminescence Cell-Based Dose Retest to Confirm Inhibitors of Cancer Stem Cells. [Related pubchem assays (depositor defined):AID2717, AID2721]; assay type: functional; conditions: Homo sapiens
[17] = HEK-293T viability loss after treatment – luminescence, T-cell screen hits, cytotoxicity control for TCR NF-kB inhibitor project, dose response (AID 489026); assay type: functional, cell-based;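 note: cells exposed to compound about 14 hours before the viability readout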

T1 sequence (P11940 whole entry, the tested form may be a part): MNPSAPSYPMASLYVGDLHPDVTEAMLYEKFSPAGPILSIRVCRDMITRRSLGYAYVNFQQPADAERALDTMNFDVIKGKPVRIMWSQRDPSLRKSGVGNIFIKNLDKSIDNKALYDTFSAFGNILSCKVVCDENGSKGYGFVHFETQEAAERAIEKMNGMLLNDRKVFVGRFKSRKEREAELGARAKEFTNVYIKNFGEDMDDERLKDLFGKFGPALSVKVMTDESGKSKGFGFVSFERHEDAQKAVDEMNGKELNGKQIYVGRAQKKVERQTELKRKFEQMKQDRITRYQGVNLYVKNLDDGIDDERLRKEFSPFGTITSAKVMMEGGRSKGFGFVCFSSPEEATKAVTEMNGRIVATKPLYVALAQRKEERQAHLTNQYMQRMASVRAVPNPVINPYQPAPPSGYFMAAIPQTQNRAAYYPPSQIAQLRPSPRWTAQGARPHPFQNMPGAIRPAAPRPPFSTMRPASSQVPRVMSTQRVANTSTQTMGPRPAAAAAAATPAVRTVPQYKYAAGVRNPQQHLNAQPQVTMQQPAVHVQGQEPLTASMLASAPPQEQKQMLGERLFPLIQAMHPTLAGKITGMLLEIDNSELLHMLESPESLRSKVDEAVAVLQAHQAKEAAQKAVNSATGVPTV

With `O=C(NC(=S)Nc1cccc(Cl)c1N1CCOCC1)c1cccs1` as the compound, how does the IC50 [1] read?
The IC50 was > 66 µM (inactive).

What about the IC50 [2] of the same compound?
Its IC50 is > 66 µM (inactive).

With `N#C/C(=C\c1ccccc1OCc1ccc(C(=O)O)cc1)C(=O)Nc1ccc(O)cc1` as the compound, how does the IC50 [3] read?
Its IC50 is 11.5 µM (active).

Which results are given for `Cc1cc2ncn(-c3ncccc3[N+](=O)[O-])c2cc1C`?
IC50 [1]: > 66 µM (inactive); IC50 [2]: > 66 µM (inactive)

For `COc1ccccc1NC(=O)NC1(C(=O)N2CCCCCC2)CCCCC1`, which EC50 [4] is on record?
Its EC50 is > 112 µM (not active).

What about the EC50 [5] of the same compound?
The EC50 was > 112 µM (not active).

For `COc1ccc(C(=O)CSc2nnc(-c3ccco3)c(-c3ccco3)n2)cc1`, which IC50 [6] is on record?
Its IC50 is 6.58 µM (active).

What does the source list for `Cc1cnc([N+](=O)[O-])n1CCOC(=O)NC(=O)c1cccc(F)c1`?
EC50 [4]: 18.4 µM (active); EC50 [5]: > 112 µM (not active)

For `Cc1cc(NC(=O)c2cc([N+](=O)[O-])cc([N+](=O)[O-])c2)no1`, which EC50 [7] is on record?
Its EC50 is > 60 µM (not active).

And the IC50 [8]?
The IC50 was 13.3 µM (active).

And the EC50 [9]?
The EC50 was 0.287 µM (active).

For `COc1cc(/C=C/C(=O)Nc2nnc(CC(C)(C)C)s2)cc(OC)c1OC`, which IC50 [1] is on record?
The IC50 was > 66 µM (inactive).

What about the IC50 [2] of the same compound?
The IC50 was > 66 µM (inactive).

What does the source list for `COc1cc2c(cc1OC)-c1cc(Nc3ccccc3)nc(=O)n1CC2`?
EC50 [4]: 1.63 µM (active); EC50 [5]: > 112 µM (not active)

For `CCN(C(=O)CN1C(=O)NC(c2ccccc2)(c2ccccc2)C1=O)c1ccccc1`, which EC50 [4] is on record?
Its EC50 is > 112 µM (not active).

And the EC50 [5]?
The EC50 was > 112 µM (not active).

With `O=C(Nc1nccs1)c1ccc2ccccc2c1` as the compound, how does the IC50 [8] read?
The IC50 was 6.75 µM (active).

And the IC50 [10]?
The IC50 was 20.8 µM (active).

For `Cc1ccccc1C(=O)Nc1nnc(-c2ccc(F)cc2)o1`, which EC50 [11] is on record?
Its EC50 is > 150 µM (inactive).

And the EC50 [12]?
Its EC50 is 1.25 µM (active).

What about the EC50 [13] of the same compound?
The EC50 was 16.6 µM (active).

And the EC50 [14]?
Its EC50 is 18.4 µM (active).

What does the source list for `CCNC(=O)c1c(NC(C)=O)sc2c1CCCC2`?
EC50 [4]: 15.2 µM (active); EC50 [5]: > 112 µM (not active); AC50 [15]: 17.8 µM (inconclusive)

With `Cc1ccc(S(=O)(=O)CCC(=O)OCC(=O)NCC(=O)Nc2cccc(C)c2C)cc1` as the compound, how does the EC50 [4] read?
Its EC50 is > 112 µM (not active).

What about the EC50 [5] of the same compound?
Its EC50 is > 112 µM (not active).

For `CCN1C(=O)C(=Cc2ccc(C)s2)C(=O)N(CC)C1=S`, which EC50 [13] is on record?
Its EC50 is 31.9 µM (active).

What about the EC50 [14] of the same compound?
The EC50 was 9.84 µM (active).

For `N#Cc1c(-c2ccco2)c2c([nH]c1=S)CCCC2`, which IC50 [3] is on record?
Its IC50 is 37.7 µM (active).

For `Cc1cccc(NC(=O)CSc2cc(C(=O)c3nccn3C)c3ccccc3n2)c1`, which EC50 [14] is on record?
The EC50 was 453 µM (active).

Which AC50 [16] does the source give for `O=C(Nc1ncc(Cc2ccc(SC(F)F)cc2)s1)c1ccc(OC(F)F)cc1` here?
The AC50 was < 0.16 µM (active).

What about the IC50 [17] of the same compound?
The IC50 was > 80 µM (inactive).
